The record followed here is ChEMBL document CHEMBL1154976 (Bioorg Med Chem Lett, 2010).

The species named for test [1] is Homo sapiens. Kind of test: Selectivity ratio of Ki for human mu opioid receptor to Ki for human kappa opioid receptor.
The next test deals with Mu-type opioid receptor (Homo sapiens, UniProt P35372). As to the kind of experiment: Displacement of [3H]DAMGO from human mu opioid receptor expressed in CHO cell membranes after 60 mins by scintillation counting. Background: Loss of bound radioactivity is the signal in a displacement assay; it reports binding, not function.
Mu-type opioid receptor, sequence (P35372 whole entry): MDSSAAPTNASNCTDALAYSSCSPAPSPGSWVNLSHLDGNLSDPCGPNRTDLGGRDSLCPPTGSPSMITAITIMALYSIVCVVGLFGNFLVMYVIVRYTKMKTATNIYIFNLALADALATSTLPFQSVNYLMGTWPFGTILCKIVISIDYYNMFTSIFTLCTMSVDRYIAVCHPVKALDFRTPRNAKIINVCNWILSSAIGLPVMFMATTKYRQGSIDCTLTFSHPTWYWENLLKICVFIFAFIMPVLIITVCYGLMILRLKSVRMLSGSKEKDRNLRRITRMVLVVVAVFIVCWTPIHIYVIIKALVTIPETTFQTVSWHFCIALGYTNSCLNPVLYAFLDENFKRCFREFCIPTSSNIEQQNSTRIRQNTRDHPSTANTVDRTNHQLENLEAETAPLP
The species entered for test [2] is Homo sapiens. Kind of test: Selectivity ratio of Ki for human delta opioid receptor to Ki for human kappa opioid receptor.
The target of test [3] is Delta-type opioid receptor (Homo sapiens, UniProt P41143). Kind of test: Displacement of [3H]naltrindole from human delta opioid receptor expressed in CHO cell membranes after 3 hrs by scintillation counting.
Delta-type opioid receptor, sequence (P41143 whole entry): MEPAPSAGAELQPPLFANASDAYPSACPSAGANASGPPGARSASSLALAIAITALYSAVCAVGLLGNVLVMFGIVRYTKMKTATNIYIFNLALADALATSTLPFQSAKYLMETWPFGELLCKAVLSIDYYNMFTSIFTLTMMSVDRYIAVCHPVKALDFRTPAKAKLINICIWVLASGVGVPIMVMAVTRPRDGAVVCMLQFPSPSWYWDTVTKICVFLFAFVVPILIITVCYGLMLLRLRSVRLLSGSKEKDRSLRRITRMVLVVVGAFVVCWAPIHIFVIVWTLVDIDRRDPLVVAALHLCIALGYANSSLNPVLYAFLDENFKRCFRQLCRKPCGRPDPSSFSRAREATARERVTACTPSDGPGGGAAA
Test [4] concerns the target Kappa-type opioid receptor (Homo sapiens, UniProt P41145). As to the kind of experiment: Displacement of [3H]U69,593 from human kappa opioid receptor expressed in CHO cell membranes after 60 mins by scintillation counting.
Test [5] is filed under the species Homo sapiens. As to the kind of experiment: Selectivity ratio of Ki for human delta opioid receptor to Ki for human mu opioid receptor.
The species named for test [6] is Homo sapiens. As to the kind of experiment: Selectivity ratio of Ki for human kappa opioid receptor to Ki for human mu opioid receptor.

Kappa-type opioid receptor, sequence (P41145 whole entry): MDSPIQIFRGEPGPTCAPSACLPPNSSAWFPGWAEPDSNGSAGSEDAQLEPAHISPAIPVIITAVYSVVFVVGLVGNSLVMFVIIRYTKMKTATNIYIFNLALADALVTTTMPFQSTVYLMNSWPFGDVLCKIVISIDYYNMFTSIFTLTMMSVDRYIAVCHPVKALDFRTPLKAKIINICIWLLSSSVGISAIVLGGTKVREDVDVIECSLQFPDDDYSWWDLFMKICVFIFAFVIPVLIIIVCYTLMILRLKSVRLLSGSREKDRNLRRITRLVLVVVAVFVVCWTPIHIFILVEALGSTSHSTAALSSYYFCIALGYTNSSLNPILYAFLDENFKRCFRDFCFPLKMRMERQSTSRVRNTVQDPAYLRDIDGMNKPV

Take `OC(CCCCCC(O)COc1ccc2c(c1)[C@@]13CCCC[C@H]1[C@@H](C2)N(CC1CCC1)CC3)COc1ccc2c(c1)[C@@]13CCCC[C@H]1[C@@H](C2)N(CC1CCC1)CC3` (stereo partly specified): the Ratio Ki in the test listed under Homo sapiens [1] was determined as 1.2; in the test filed under Homo sapiens [2] it was 25. The Ki (in general, the equilibrium dissociation constant of an inhibitor or competing ligand from its target) amounted to 4.8 nM on Mu-type opioid receptor, 99 nM in test [3] and 3.9 nM in test [4].

As for `OC(CCCCC(O)COc1ccc2c(c1)[C@@]13CCCC[C@H]1[C@@H](C2)N(CC1CCC1)CC3)COc1ccc2c(c1)[C@@]13CCCC[C@H]1[C@@H](C2)N(CC1CCC1)CC3` (stereo partly specified), the Ki on Mu-type opioid receptor was found to be 3.2 nM; in test [3] it was 74 nM; in test [4] it was 3.3 nM. Also, the Ratio Ki in the test listed under Homo sapiens [2] and in the test filed under Homo sapiens [5] was 23 throughout.

`c1cc2c(cc1OCCCOc1ccc3c(c1)[C@@]14CCCC[C@H]1[C@@H](C3)N(CC1CCC1)CC4)[C@@]13CCCC[C@H]1[C@@H](C2)N(CC1CCC1)CC3`: the Ratio Ki in the test filed under Homo sapiens [1] came out at 1.1; in the test filed under Homo sapiens [2] it was 29. Further, the values for the Ki (at Mu-type opioid receptor; in test [3]; in test [4]) were 7.1 nM, 180 nM and 6.2 nM, respectively.

Consider `c1cc2c(cc1OCCCCOc1ccc3c(c1)[C@@]14CCCC[C@H]1[C@@H](C3)N(CC1CCC1)CC4)[C@@]13CCCC[C@H]1[C@@H](C2)N(CC1CCC1)CC3`, for which the figures for the Ratio Ki in the test filed under Homo sapiens [1] and in the test filed under Homo sapiens [2] were 1.6 and 40, respectively.

`OC(COc1ccc(Cc2ccc(OCC(O)COc3ccc4c(c3)[C@@]35CCCC[C@H]3[C@@H](C4)N(CC3CCC3)CC5)cc2)cc1)COc1ccc2c(c1)[C@@]13CCCC[C@H]1[C@@H](C2)N(CC1CCC1)CC3` (stereo partly specified): the values for the Ki (at Mu-type opioid receptor; in test [3]; in test [4]) were 0.24 nM, 29 nM and 0.34 nM, respectively. For the same molecule, the Ratio Ki was 121 in the test listed under Homo sapiens [5] and 1.4 in the test listed under Homo sapiens [6].

`OC(CCCC(O)COc1ccc2c(c1)[C@@]13CCCC[C@H]1[C@@H](C2)N(CC1CCC1)CC3)COc1ccc2c(c1)[C@@]13CCCC[C@H]1[C@@H](C2)N(CC1CCC1)CC3` (stereo partly specified): the Ratio Ki in the test listed under Homo sapiens [1] was determined as 1.2; in the test filed under Homo sapiens [2], 16. Further, the Ki was found to be 12 nM on Mu-type opioid receptor, 160 nM in test [3] and 9.8 nM in test [4].

As for `c1cc2c(cc1OCC1CO1)[C@@]13CCCC[C@H]1[C@@H](C2)N(CC1CCC1)CC3` (stereo partly specified), the values for the Ki (on Mu-type opioid receptor; in test [3]; in test [4]) were 7.3 nM, 200 nM and 36 nM, respectively. The results for the Ratio Ki in the test filed under Homo sapiens [5] and in the test filed under Homo sapiens [6] were 27 and 5, respectively.

Consider `CCCCCCCCC(O)COc1ccc2c(c1)[C@@]13CCCC[C@H]1[C@@H](C2)N(CC1CCC1)CC3` (stereo partly specified), for which the Ki came to 7.4 nM on Mu-type opioid receptor, 52 nM in test [3] and 8.3 nM in test [4]. Also, the Ratio Ki in the test filed under Homo sapiens [5] was 7; in the test listed under Homo sapiens [6], 1.1.

Turning to `OC(CCC(O)COc1ccc2c(c1)[C@@]13CCCC[C@H]1[C@@H](C2)N(CC1CCC1)CC3)COc1ccc2c(c1)[C@@]13CCCC[C@H]1[C@@H](C2)N(CC1CCC1)CC3` (stereo partly specified), the Ratio Ki worked out at 1.4 in the test listed under Homo sapiens [1] and 35 in the test filed under Homo sapiens [2]. The inhibition constant (Ki) on Mu-type opioid receptor was 17 nM; in test [3], 420 nM; in test [4], 12 nM.

As for `OC(CCCCCCC(O)COc1ccc2c(c1)[C@@]13CCCC[C@H]1[C@@H](C2)N(CC1CCC1)CC3)COc1ccc2c(c1)[C@@]13CCCC[C@H]1[C@@H](C2)N(CC1CCC1)CC3` (stereo partly specified), the Ratio Ki in the test filed under Homo sapiens [1] was 1.7; in the test filed under Homo sapiens [2] it was 19. The inhibitory constant (Ki) is 2.4 nM at Mu-type opioid receptor, 27 nM in test [3] and 1.4 nM in test [4].

On to `OC(COc1ccc2c(c1)[C@@]13CCCC[C@H]1[C@@H](C2)N(CC1CCC1)CC3)CC(O)COc1ccc2c(c1)[C@@]13CCCC[C@H]1[C@@H](C2)N(CC1CCC1)CC3` (stereo partly specified), for which the Ratio Ki turned out to be 7 in the test listed under Homo sapiens [1] and 194 in the test listed under Homo sapiens [2]. Moreover, the Ki stood at 1.2 nM at Mu-type opioid receptor, 33 nM in test [3] and 0.17 nM in test [4].

Take `OC(COc1ccc2c(c1)[C@@]13CCCC[C@H]1[C@@H](C2)N(CC1CCC1)CC3)COc1ccc2c(c1)[C@@]13CCCC[C@H]1[C@@H](C2)N(CC1CCC1)CC3`: the values for the Ki (at Mu-type opioid receptor; in test [3]; in test [4]) were 0.95 nM, 37 nM and 0.99 nM, respectively. Moreover, the Ratio Ki in the test filed under Homo sapiens [2] and in the test filed under Homo sapiens [5] was 39 in each case.

Take `c1cc2c(cc1OCCCCCCCCCCOc1ccc3c(c1)[C@@]14CCCC[C@H]1[C@@H](C3)N(CC1CCC1)CC4)[C@@]13CCCC[C@H]1[C@@H](C2)N(CC1CCC1)CC3`: the Ratio Ki amounted to 38 in the test listed under Homo sapiens [5] and 1.8 in the test filed under Homo sapiens [6].

For `OC(COc1ccccc1)COc1ccc2c(c1)[C@@]13CCCC[C@H]1[C@@H](C2)N(CC1CCC1)CC3` (stereo partly specified), the Ki was determined as 6.5 nM at Mu-type opioid receptor, 86 nM in test [3] and 22 nM in test [4]. Moreover, the Ratio Ki in the test listed under Homo sapiens [5] and in the test filed under Homo sapiens [6] was 13 each time.

Consider `CCCCCCCCCCOc1ccc2c(c1)[C@@]13CCCC[C@H]1[C@@H](C2)N(CC1CCC1)CC3`, for which the Ratio Ki in the test listed under Homo sapiens [1] was determined as 1.3. At Mu-type opioid receptor, this molecule gave a Ki of 70 nM.

For `CCCCCCCCCC(=O)Oc1ccc2c(c1)[C@@]13CCCC[C@H]1[C@@H](C2)N(CC1CCC1)CC3`, the figures for the Ki (at Mu-type opioid receptor; in test [3]; in test [4]) were 0.21 nM, 20 nM and 0.2 nM, respectively. Further, the Ratio Ki in the test listed under Homo sapiens [2] and in the test listed under Homo sapiens [5] was 100 in each case.
